Reference: US6635242B2, “Broad spectrum microbicidal and spermicidal compositions, devices, and methods” (The Pennsylvania State University, priority 1998, dated 2003)

What was measured:
HIV-1 (strain IIIB) = experiment: HIV-1 inactivation assay (HeLa-CD4-LTR-β-gal indicator cells); format: cell-based; details: 10 min 37° C.
Experimental: One day prior to the assay, HeLa-CD4-LTR-β-gal cells were seeded into 12-well culture dishes at a concentration of 8×10^4 cells per well. A high titer (10^7.17 TCID50/ml) virus stock of HIV-1 (strain IIIB; Advanced Biotechnologies, Inc., Columbia, Md.) was diluted 1:10 with RPMI 1640 supplemented with 10% FBS. To assess viral inactivation by SDS, 78 μl of diluted virus were mixed with 2 μl of detergent solution, and incubated for 10 min at 37° C. After the inactivation period, the virus and detergent were diluted with 720 μl R10 (1:10) supplemented with DEAE dextran (20 μg/ml final concentration). Aliquots of treated virus (300 μl) were then added to duplicate wells of HeLa cells and incubated at 37° C. for 2 hr. Following viral adsorption, 2 ml of fresh media (DMEM supplemented with 10% FBS, 0.1 mg/ml G418, and 0.05 mg/ml hygromycin B) were added to each well. After incubation at 37° C. and 5% CO2 for 48 hr post-infection, cells were fixed and stained for β-galactosidase expression.
It is established that N-9 can inactivate HIV-1. We compared inactivation of HIV-1 by a second non-ionic detergent, C31G, and by SDS. High titer virus stocks of HIV-1 were incubated with either C31G or SDS and then virus was assayed on indicator cells expressing β-gal under the control of the HIV-1 LTR. After 48 hours, cells were stained and the number of cells expressing increased β-gal counted. […].

BPV-1 = BPV-1 focus assay in C127 mouse cells; format: cell-based, bovine papillomavirus; details: for foci/plate Exp. 2 Day 14 / foci/plate Exp. 2 Day 17: 37° C. 10 minutes; for foci/plate Exp. 2 Day 14 / foci/plate Exp. 2 Day 17 / foci/plate Exp. 1 day 12: diluted 1:1000; for foci/plate Exp. 1 day 12: 37° C. 30 minutes
Experimental: Cell-free stocks of BPV-1 were prepared by extraction (10% w/v) of epidermal bovine warts in phosphate buffered saline (PBS). In order to detect the transforming ability of BPV-1, C127 mouse cells were seeded (3×10^5 cells per flask) into T-25^2 flasks. After 24 hr of growth, subconfluent cells were infected with BPV-1. For the positive controls, stock virus (20 μl) was diluted (1:1) with PBS, incubated at 37° C. for 10 min, diluted […] and then added (100 μl ) into the 5 ml of cell culture medium present on the cells. Cells were refed at 24 hours and subsequently 2 times weekly. The presence of morphologically transformed foci was counted after 2 weeks and then again at 3 weeks.
Virus inactivations were carried out in vitro by addition of concentrated SDS solutions to the virus stocks (20 μl of virus plus 20 μl of detergent) and subsequent incubation at 37° C. for 10 or 30 min as indicated. Following inactivation, virus was diluted 1000 fold to lower the detergent concentration and the preparations were immediately used for infection as above.
Although SDS could effectively reduce HSV-2 infectivity, it remained possible that this destruction was mediated by envelope removal. Because papillomaviruses are non-enveloped, the possibility remained that SDS would fail to inactivate these viruses. We utilized BPV-1 as a prototype PV because of its ability to rapidly (within 2 weeks) form multi-layered transformed foci in mouse fibroblasts in an in vitro assay. Table 3 describes results of two separate experiments in which stocks of BPV-1 were incubated at 37° C. with various concentrations of SDS (5% to 5×10^−4%) for either 10 or 30 minutes, diluted to lower the SDS concentration (to avoid cell toxicity) and then used to infect C127 cells. […] Table 4 lists several other commercially available detergents that were tested for possible inactivation of BPV-1. None of these detergents inactivated the morphologic transforming properties of the BPV-1.

CRPV = format: in vivo, cottontail rabbit papillomavirus; details: 0.05% SDS
HPV 11 = experiment: Human papilloma induction: HPV 11 in human foreskin xenografts in athymic mice; format: in vivo, human papillomavirus
Experimental: Stocks of experimentally generated infectious HPV 11 were prepared and represented 10% w/v cell free extracts of virus in PBS. Undiluted aliquots of virus stocks (39 μl ) were mixed with a 40×solution of SDS 1 μl ), incubated at 37° C. for 10 min and immediately used to infect split thickness grafts of newborn human foreskin epithelium. Virus was not subsequently diluted. Control grafts were infected with untreated virus stock. Virus adsorption was for 1 hr at 37° C. […] Grafts were then transplanted beneath the renal capsule of athymic mice. Animals were maintained in isolator bubbles with antibiotic supplemented drinking water in the animal colony of the Hershey Medical Center. Three months following infection, animals were sacrificed, their kidneys were removed, and the xenografts were grossly examined. The remaining organs were examined for any apparent abnormalities and none were found. Portions of each graft were immediately fixed in 10% neutral-buffered formalin and processed by standard histologic techniques for staining with hematoxylin and eosin.
Standard stocks of HPV 11 were used as undiluted virus. These virus stocks normally induce Condylomata in 90-100% of infected xenografts when diluted 1000 fold. […] Infection was then carried out for 1 hr and the grafts subsequently transplanted in vivo. Eight animals (16 kidneys) received grafts infected with SDS treated virus and 9 animals (17 kidneys) received normal virus. […] In the normal infections, 17 of 17 grafts survived and of these, 14 were transformed morphologically upon histologic examination and had typical papillomatous appearance.

HSV-2 = experiment: Protection of mice from vaginal infection with live HSV-2; format: in vivo, herpes simplex virus; details: Swiss-Webster mice
Experimental: The following data represent an in vivo experiment to test both the toxicity and the efficacy of SDS in the protection of mice from vaginal infection with live herpes simplex virus (HSV-2).
The experiment used outbred, female, Swiss-Webster mice. Mice were anesthetized and then SDS or control solutions (25μl ) was instilled into the vagina using a yellow pipette tip. The SDS was not formulated into a vaginal cream or foam but merely dissolved into phosphate buffered saline. These solutions have low viscosity. Fluids were instilled into groups of 10 mice at one time. Following administration of SDS or control solutions to the group of 10, then an additional 25 μof virus or control fluid was instilled. Mice were allowed to recover from the anesthesia and then the mice were checked daily for symptoms, beginning on day three and until 12 days after inoculation. Vaginal swabs were also performed on the mice on a daily basis, beginning on day three, in order to determine shedding of virus. FIGS. 3A-3G show the total symptoms per group on days 3 through 12 for each of the following symptoms: swelling, vaginal exudate, redness, death, leg paralysis, perianal hair loss and any symptom.

[1] = 2.5 × 10^−3 % SDS during treatment
[2] = 5 × 10^−2 % SDS during treatment
[3] = 5 × 10^−3 % SDS during treatment
[4] = 5 × 10^−4 % SDS during treatment
[5] = 0.025 % SDS during treatment (as printed in Table 5), grafts harvested after three months
[6] = undiluted HPV 11 treated with 0.05% SDS, 37° C. 10 min

SMILES: CCCCCCCCCCCCOS(=O)(=O)[O-].[Na+] [SDS, Sodium dodecyl sulfate]
- concentration (as low as) giving total inactivation of HIV-1 (HIV-1 (strain IIIB)): 0.025%
- foci/plate Exp. 2 Day 14 (BPV-1; [1]): 273
- foci/plate Exp. 2 Day 17 (BPV-1; [1]): 162
- foci/plate Exp. 1 day 12 (BPV-1; 5 % SDS during treatment): 0
- foci/plate Exp. 1 day 12 (BPV-1; 5 × 10^−1 % SDS during treatment): 0
- foci/plate Exp. 2 Day 14 (BPV-1; [2]): 0
- foci/plate Exp. 2 Day 17 (BPV-1; [2]): 0
- foci/plate Exp. 1 day 12 (BPV-1; [2]): 0
- foci/plate Exp. 2 Day 14 (BPV-1; [3]): 271
- foci/plate Exp. 2 Day 17 (BPV-1; [3]): 150
- foci/plate Exp. 1 day 12 (BPV-1; [3]): 0
- foci/plate Exp. 2 Day 14 (BPV-1; [4]): 229
- foci/plate Exp. 2 Day 17 (BPV-1; [4]): 151
- relative potency in dose response curves (BPV-1; compared with other alkyl sulfate group members): most potent
- inactivation of BPV-1 morphologic transformation of C127 cells (BPV-1; detergent 1% final concentration, 37° C., 10 min): completely eliminated virus foci
- concentration (as low as) that totally inactivates BPV-1 transforming ability (BPV-1; treatment of the virus at 37° C. for 10 minutes): 0.05%
- concentration (as low as) that totally inactivates BPV-1 transforming ability (BPV-1; treatment of the virus at 37° C. for 30 minutes): 0.005%
- development of papillomas at the six sites that received SDS treated preparations (FIG. 1b) (CRPV; 10^−1 dilution of virus stock, 10 min, 37° C., rabbits): delayed in the development of papillomas
- inactivation of CRPV (GMD of lesions, FIG. 1a) (CRPV; 10^−1 dilution of virus stock, 10 min, 37° C., rabbits, days 18-50): substantially inactivated
- sites inoculated with treated virus in which papillomas failed to develop (CRPV; 10^−2 dilution of CRPV stock, 37° C. 10 min, five rabbits, 3-6 weeks): 8 of 10
- surviving grafts/ transplanted grafts (HPV 11; [5]): 13/16
- total papillomas (HPV 11; [5]): 0
- prevention of HPV 11 infection of xenografts (HPV 11; [6]): effectively prevented virus infection
- xenografts showing viable tissue at harvest (normal, viable differentiating human epithelium) (HPV 11; [6]): 13 out of 16
- protection from HSV-2 inoculation of the vagina, dose response (HSV-2; 4% SDS): most protection
- protection from HSV-2 inoculation of the vagina (symptoms days 3-12) (HSV-2; all concentrations of SDS (0.5%, 1%, 2%, 4%) in PBS, 25 μl intravaginal): significant protection
